In paper PMC10477886, “Adamantaniline Derivatives Target ATP5B to Inhibit Translation of Hypoxia Inducible Factor‐1α” (Advanced Science, 2023):

How the values were obtained:
[1] = system: HIF‐1α transcriptional activity; test: dual‐luciferase assay (HRE‐Firefly Luciferase / renilla) of HIF‐1α transcriptional activity in HEK293T cells; format: cell-based, human; details: Homo sapiens, HEK-293T, mean ± s.d. (n = 3); for inhibition at 10 µM: incubation 24 h, HEK293T, read-out: Inhibition rate [%] @ 10 µM; for IC50: HEK293T dual‐luciferase
Text: To screen HIF‐1α inhibitors in a robust cell‐based assay, we optimized the dual‐luciferase assay with pLenti‐HIF‐1αP2A (P402A and P564A) instead of pLenti‐HIF‐1α in order to ensure the expression of HIF‐1α under normoxia condition. In the cell‐based assay, HEK293T cells were co‐transfected with pLenti‐HIF‐1αP2A, renilla, and hypoxia‐responsive element (HRE)‐Firefly Luciferase (Figure S1, Supporting Information). […] Three compounds were selected as the positive controls including two inhibitors (PX‐478 2HCl and BAY 87‐2243) and an activator (BAY 85‐3934) in the screening assay.
HEK293T cells were stably transfected with reporter plasmids pGMLV‐HRE‐LUC‐puromycin, pMSCV‐renilla‐hygromycin, and pLenti‐HIF‐1αP2A‐neomycin. Stable cell line constructed above, 293‐HIF‐1αP2A‐HRE‐Fluc‐Rluc, were seeded in 384‐well plates and cultured in DMEM with 10% FBS. The following day, the cells were pretreated with indicated chemical compounds from the National Compound Library of the Shanghai Institute of Materia Medica, Chinese Academy of Sciences by Mosquito HTS. The plate was then placed in an incubator chamber and incubated at 37 °C for 24 h. The ratio of firefly/renilla luciferase activity was determined by using the Envision (PerkinElmer).
Stable cell line 293‐HRE‐Fluc‐Rluc expressed luciferase and renilla or HEK293T cells transfected with indicated plasmids (pGL3‐HRE‐luciferase and pSV40‐renilla) were seeded in a 96‐well plate. The cells were co‐incubated with indicated compounds for 24 h and luciferase activities were detected in Microplate Reader (BioTek SYNEGRY H1) using the Dual Luciferase Reporter Assay System Kit (Promega, USA E1910) according to the manufacturer's instruction. The relative Luc activity was normalized by renilla activity. Three independent experiments were performed, and the calculated means and SDs are presented.

[2] = plasma concentration and pharmacokinetics after intraperitoneal administration in ICR mice; format: in vivo; details: intraperitoneal 50 mg kg^−1, two mice per compound, five times
Protocol: First, we roughly screened the concentrations in the plasma of seven selected compounds (1‐3n, 1‐3au, 1‐4a, 1‐4k, 1‐4l, 1‐4m, and 1‐4p) at indicated times after intraperitoneal administration in the Institute of Cancer Research (ICR) mice at a dose of 50 mg kg^−1 with two mice per compound, the blood at five different times was collected and the plasma concentration was analyzed finally. […] Besides, we examined the toxicity of HI‐104 in ICR mice by administering for 1 week at a dose of 100 mg kg^−1 by intraperitoneal injection.

| Compound | inhibition at 10 µM [1] [%] | IC50 [1] [nM] | concentration in the plasma (rough screen) [2] |
| --- | --- | --- | --- |
| O=C(Nc1ccc(C23CC4CC(CC(C4)C2)C3)cc1)c1cc[nH]n1 [1‐4m, N‐(4‐((3r,5r,7r)‐Adamantan‐1‐yl)Phenyl)−1H‐Pyrazole‐3‐Carboxamide] | 99.8 ± 0.1 | 79 ± 2 | barely detectable in the plasma |
| Nc1ccnc(C(=O)Nc2ccc(C34CC5CC(CC(C5)C3)C4)cc2)c1 [1‐4p, N‐(4‐((3r,5r,7r)‐Adamantan‐1‐yl)Phenyl)−4‐Aminopicolinamide] | 99.2 ± 0.1 | 73 ± 2 | barely detectable in the plasma |
| O=C(Nc1ccc(C23CC4CC(CC(C4)C2)C3)cc1)c1ccccn1 [1‐4a, N‐(4‐((3r,5r,7r)‐Adamantan‐1‐yl)Phenyl)Picolinamide] | 99.7 ± 0.2 | 65 ± 22 | barely detectable in the plasma |
| CCCCCCCCc1ccc(C(=O)Nc2ccc(C34CC5CC(CC(C5)C3)C4)cc2)cc1 [1‐3ak, N‐(4‐((1s,3s)‐Adamantan‐1‐yl)Phenyl)−4‐Octylbenzamide] | 32.5 ± 7.2 | – | – |
| O=C(Nc1ccc(C23CC4CC(CC(C4)C2)C3)cc1)c1cccc(C(F)(F)F)c1 [1‐3ae, N‐(4‐((3r,5r,7r)‐Adamantan‐1‐yl)Phenyl)−3‐(Trifluoromethyl)Nenzamide] | 20.2 ± 1.5 | – | – |
| O=C(CCCCBr)Nc1ccc(C(=O)Nc2ccc(C34CC5CC(CC(C5)C3)C4)cc2)cc1 [1‐3ao, N‐(4‐((3r,5r,7r)‐Adamantan‐1‐yl)Phenyl)−4‐(5‐Bromopentanamido)Benzamide] | 82.9 ± 2.4 | 2300 ± 500 | – |
| CCc1cc(C23CC4CC(C)(CC(C)(C4)C2)C3)cc(CC)c1NC(=O)c1cccc(Cl)c1 [3‐2h, 3‐Chloro‐N‐(4‐((1r,3R,5S,7r)−3,5‐Dimethyladamantan‐1‐yl)−2,6‐Diethylphenyl)Benzamide] | 30 ± 8.4 | – | – |
| O=C(CC12CC3CC(CC(C3)C1)C2)Nc1ccc(NC(=O)c2ccccn2)cc1 [2‐3b, N‐(4‐(2‐((3r,5r,7r)‐Adamantan‐1‐yl)Acetamido)Phenyl)Picolinamide] | 68 ± 4.7 | 3500 ± 1000 | – |
| CN(C)CCCC(=O)Nc1ccc(C(=O)Nc2ccc(C34CC5CC(CC(C5)C3)C4)cc2)cc1 [1‐3at, N‐(4‐((3r,5r,7r)‐Adamantan‐1‐yl)Phenyl)−4‐(4‐(Dimethylamino)Butanamido)Benzamide] | 90 ± 1.7 | 940 ± 20 | – |
| O=C(Nc1ncc(C23CC4CC(CC(C4)C2)C3)cn1)c1cccc(Cl)c1 [3‐2c, N‐(5‐((3r,5r,7r)‐Adamantan‐1‐yl)Pyrimidin‐2‐yl)−3‐Chlorobenzamide] | 65.3 ± 4.3 | – | – |
| O=C(Nc1ccc(C23CC4CC(CC(C4)C2)C3)cc1)c1ccc(Cl)cc1 [1‐3c, N‐(4‐((3r,5r,7r)‐Adamantan‐1‐yl)Phenyl)−4‐Chlorobenzamide] | 63.4 ± 5.4 | – | – |
| O=C(Nc1ccc(C23CC4CC(CC(C4)C2)C3)cc1)c1ccc(N2CCCC2)cc1 [1‐3ah, N‐(4‐((3r,5r,7r)‐Adamantan‐1‐yl)Phenyl)−4‐(Pyrrolidin‐1‐yl)Benzamide] | 66.5 ± 0.9 | – | – |
| C[N+](C)(C)CCCC(=O)Nc1cccc(C(=O)Nc2ccc(C34CC5CC(CC(C5)C3)C4)cc2)c1 [1‐3as, 4‐((3‐((4‐((3r,5r,7r)‐Adamantan‐1‐yl)Phenyl)Carbamoyl)Phenyl)Amino)‐N,N,N‐Trimethyl‐4‐Oxobutan‐1‐Aminium] | 76.4 ± 1.3 | 2500 ± 700 | – |
| CC(=O)Nc1ccc(C(=O)Nc2ccc(C34CC5CC(CC(C5)C3)C4)cc2)cc1 [1‐3x, 4‐Acetamido‐N‐(4‐((3r,5r,7r)‐Adamantan‐1‐yl)Phenyl)Benzamide] | 84.4 ± 1.9 | 950 ± 110 | – |
| CC(C)(C)OC(=O)Nc1cccc(C(=O)Nc2ccc(C34CC5CC(CC(C5)C3)C4)cc2)c1 [1‐3q, Tert‐Butyl (3‐((4‐((3r,5r,7r)‐Adamantan‐1‐yl)Phenyl)Carbamoyl)Phenyl)Carbamate] | 75.5 ± 0.3 | 3500 ± 200 | – |
| O=C(CCCCN1CCOCC1)Nc1cccc(C(=O)Nc2ccc(C34CC5CC(CC(C5)C3)C4)cc2)c1 [1‐3an, N‐(4‐((1s,3s)‐Adamantan‐1‐yl)Phenyl)−3‐(5‐Morpholinopentanamido)Benzamide] | 93.4 ± 0.5 | 370 ± 40 | – |

| Compound | inhibition at 10 µM [1] [%] | IC50 [1] [nM] | concentration in the plasma (rough screen) [2] |
| --- | --- | --- | --- |
| N#Cc1cccc(C(=O)Nc2ccc(C34CC5CC(CC(C5)C3)C4)cc2)c1 [1‐3k, N‐(4‐((3r,5r,7r)‐Adamantan‐1‐yl)Phenyl)−3‐Cyanobenzamide] | 67.4 ± 3.8 | – | – |
| CN1CCN(CCCCC(=O)Nc2cccc(C(=O)Nc3ccc(C45CC6CC(CC(C6)C4)C5)cc3)c2)CC1 [1‐3am, N‐(4‐((1s,3s)‐Adamantan‐1‐yl)Phenyl)−3‐(5‐(4‐Methylpiperazin‐1‐yl)Pentanamido)Benzamide] | 86.4 ± 0.9 | 1300 ± 200 | – |
| COc1ccnc(C(=O)Nc2ccc(C34CC5CC(CC(C5)C3)C4)cc2)c1 [1‐4g, N‐(4‐((3r,5r,7r)‐Adamantan‐1‐yl)Phenyl)−4‐Methoxypicolinamide] | 68.5 ± 0.4 | – | – |
| CC(=O)Nc1ccccc1C(=O)Nc1ccc(C23CC4CC(CC(C4)C2)C3)cc1 [1‐3v, 2‐Acetamido‐N‐(4‐((3r,5r,7r)‐Adamantan‐1‐yl)Phenyl)Benzamide] | 18.4 ± 2.2 | – | – |
| CC(C)c1cc(C23CC4CC(CC(C4)C2)C3)cc(C(C)C)c1NC(=O)c1cccc(Cl)c1 [3‐2b, N‐(4‐((3r,5r,7r)‐Adamantan‐1‐yl)−2,6‐Diisopropylphenyl)−3‐Chlorobenzamide] | 27 ± 4.9 | – | – |
| CC(C)(C)OC(=O)Nc1ccccc1C(=O)Nc1ccc(C23CC4CC(CC(C4)C2)C3)cc1 [1‐3p, Tert‐Butyl 2‐(2‐((4‐((3r,5r,7r)‐Adamantan‐1‐yl)Phenyl)Carbamoyl)Phenyl)Carbamate] | 40.3 ± 3.2 | – | – |
| O=C(CCCCN1CCOCC1)Nc1ccc(C(=O)Nc2ccc(C34CC5CC(CC(C5)C3)C4)cc2)cc1 [1‐3aq, N‐(4‐((3r,5r,7r)‐Adamantan‐1‐yl)Phenyl)−4‐(5‐Morpholinopentanamido)Benzamide] | 69.5 ± 0.5 | – | – |
| CC(=O)Nc1ccc(C(=O)Nc2ccc(C34CC5CC(C)(CC(C)(C5)C3)C4)cc2)cc1 [3‐2d] | 31.4 ± 4.5 | – | – |
| O=C(Nc1ccc(C23CC4CC(CC(C4)C2)C3)cc1)c1ccncc1 [1‐4c, N‐(4‐((3r,5r,7r)‐Adamantan‐1‐yl)Phenyl)Isonicotinamide] | 41.6 ± 2 | – | – |
| COc1ccc(C(=O)Nc2ccc(C34CC5CC(CC(C5)C3)C4)cc2)nc1 [1‐4f] | 36.1 ± 5.6 | – | – |
| N#Cc1ccccc1C(=O)Nc1ccc(C23CC4CC(CC(C4)C2)C3)cc1 [1‐3j, N‐(4‐((3r,5r,7r)‐Adamantan‐1‐yl)Phenyl)−2‐Cyanobenzamide] | 41.8 ± 3.4 | – | – |
| O=C(NC1C2CC3CC(C2)CC1C3)c1ccc(NC(=O)c2ccccn2)cc1 [2‐3a, N‐(4‐(((1R,3S,5r,7r)‐Adamantan‐2‐yl)Carbamoyl)Phenyl)Picolinamide] | 78.5 ± 4.5 | 1500 ± 200 | – |
| Nc1cccc(C(=O)Nc2ccc(C34CC5CC(CC(C5)C3)C4)cc2)c1 [1‐3t, N‐(4‐((3r,5r,7r)‐Adamantan‐1‐yl)Phenyl)−3‐Aminobenzamide] | 97.3 ± 0.4 | 230 ± 30 | – |
| O=C(Nc1ccc(C23CC4CC(CC(C4)C2)C3)cc1)c1ccccc1Cl [1‐3b, N‐(4‐((3r,5r,7r)‐Adamantan‐1‐yl)Phenyl)−2‐Chlorobenzamide] | 58.4 ± 1.5 | – | – |
| CN(C)CCCC(=O)Nc1cccc(C(=O)Nc2ccc(C34CC5CC(CC(C5)C3)C4)cc2)c1 [1‐3ar, N‐(4‐((3r,5r,7r)‐Adamantan‐1‐yl)Phenyl)−3‐(4‐(Dimethylamino)Butanamido)Benzamide] | 79.4 ± 1.8 | 2100 ± 400 | – |
